# Data as given in BindingDB's records for doi:10.1111/j.1471-4159.1979.tb04553.x (1979).
# pKi: −log10 of the molar value.
# Target: Gamma-aminobutyric acid type B receptor subunit 1 (UniProt Q9Z0U4)
# Sequence (Q9Z0U4 whole entry): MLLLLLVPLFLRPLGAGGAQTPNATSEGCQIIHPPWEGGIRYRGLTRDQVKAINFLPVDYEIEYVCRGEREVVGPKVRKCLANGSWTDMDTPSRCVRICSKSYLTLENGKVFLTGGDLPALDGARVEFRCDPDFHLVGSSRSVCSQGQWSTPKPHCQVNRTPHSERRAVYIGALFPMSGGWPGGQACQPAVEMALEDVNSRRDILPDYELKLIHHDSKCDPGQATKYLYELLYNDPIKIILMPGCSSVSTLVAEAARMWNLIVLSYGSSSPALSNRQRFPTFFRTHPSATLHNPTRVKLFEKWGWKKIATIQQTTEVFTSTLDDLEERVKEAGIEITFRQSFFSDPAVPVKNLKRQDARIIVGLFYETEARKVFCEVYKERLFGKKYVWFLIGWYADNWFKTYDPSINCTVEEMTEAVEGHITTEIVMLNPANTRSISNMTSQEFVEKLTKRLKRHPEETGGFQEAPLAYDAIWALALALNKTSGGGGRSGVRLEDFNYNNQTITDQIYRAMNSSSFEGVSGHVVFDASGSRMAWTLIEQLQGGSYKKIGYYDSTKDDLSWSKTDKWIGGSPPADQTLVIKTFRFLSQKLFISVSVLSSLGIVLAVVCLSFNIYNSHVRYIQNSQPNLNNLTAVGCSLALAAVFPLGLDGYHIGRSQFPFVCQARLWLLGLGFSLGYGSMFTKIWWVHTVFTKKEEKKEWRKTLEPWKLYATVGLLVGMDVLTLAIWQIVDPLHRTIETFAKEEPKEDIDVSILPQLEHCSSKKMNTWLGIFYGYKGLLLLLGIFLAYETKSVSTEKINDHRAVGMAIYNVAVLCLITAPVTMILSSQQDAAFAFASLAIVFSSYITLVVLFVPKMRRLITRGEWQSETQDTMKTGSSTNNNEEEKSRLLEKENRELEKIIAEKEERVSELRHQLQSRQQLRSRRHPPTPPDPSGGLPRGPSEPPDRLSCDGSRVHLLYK
row,Compound,pKi
1,N[C@@H]1C(=O)N2C(C(=O)O)=C(CSc3cnn[nH]3)CS[C@H]12 [CAS_37539-03-0],7.29
2,O=C(O)[C@@H]1CCCNC1 (racemic) [Nipecotic],< 5.00
3,NCc1cc(=O)[nH]o1,8.00
4,CC(C)(O)C1C2OC(=O)C1C1(O)CC3OC34C(=O)OC2C14C (stereo not given) [NSC_5311359],< 5.00
5,c1c[nH]cn1,6.64
